Laboratory results from PubChem BioAssay AID342 (DTP/NCI, 2004).
Values joined by “and” are separate entries in the source; they are usually repeats but may differ in a detail not shown here. Equal entries are not always repeated.

Tested on: Swiss mice, Sarcoma 180 sc, mean tumor weight T/C
Assay: NCI In Vivo Anticancer Drug Screen. Data for tumor model Sarcoma 180 (subcutaneous) in Swiss mice
Conditions: endpoint: mean tumor weight, higher = larger tumour
Procedure, shortened: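 T/C ratio: treated over vehicle-treated controls, measuring survival or tumor size in transplanted-tumor mice.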

CN(C)C1C(=O)C(C(N)=O)=C(O)C2(O)C(=O)C3=C(O)c4c(O)cccc4C(C)(O)C3C(O)C12 (configuration not stated)
T/C (dose: 15.12 mg/kg/injection, schedule: Q01DX007 (ip), vehicle: carboxymethylcellulose (CMC)): 98 % of control
T/C (dose: 17.5 mg/kg/injection, schedule: Q01DX007 (ip), vehicle: carboxymethylcellulose (CMC)): 111 % of control
T/C (dose: 31.25 mg/kg/injection, schedule: Q01DX007 (ip), vehicle: carboxymethylcellulose (CMC)): 124 % of control
T/C (dose: 35.0 mg/kg/injection, schedule: Q01DX007 (ip), vehicle: carboxymethylcellulose (CMC)): 105 % of control
T/C (dose: 62.5 mg/kg/injection, schedule: Q01DX007 (ip), vehicle: carboxymethylcellulose (CMC)): 117 % of control
T/C (dose: 70.0 mg/kg/injection, schedule: Q01DX007 (ip), vehicle: carboxymethylcellulose (CMC)): 102 % of control
T/C (dose: 125.0 mg/kg/injection, schedule: Q01DX007 (ip), vehicle: carboxymethylcellulose (CMC)): 50 % of control
T/C (dose: 140.0 mg/kg/injection, schedule: Q01DX007 (ip), vehicle: carboxymethylcellulose (CMC)): 79 % of control

CC(=O)OC(C)(C)/C=C/C(=O)[C@](C)(O)[C@H]1[C@H](O)C[C@@]2(C)[C@@H]3CC=C4[C@@H](C=C(O)C(=O)C4(C)C)[C@]3(C)C(=O)C[C@]12C
T/C (dose: 0.4 mg/kg/injection, schedule: Q01DX007 (ip), vehicle: carboxymethylcellulose (CMC)): 54 % of control
T/C (dose: 0.8 mg/kg/injection, schedule: Q01DX007 (ip), vehicle: carboxymethylcellulose (CMC)): 29 % of control
T/C (dose: 1.6 mg/kg/injection, schedule: Q01DX007 (ip), vehicle: carboxymethylcellulose (CMC)): 94 % of control
T/C (dose: 3.2 mg/kg/injection, schedule: Q01DX007 (ip), vehicle: carboxymethylcellulose (CMC)): 88 % of control

COc1ccc(C[C@H]2NC[C@H](O)[C@H]2OC(C)=O)cc1
T/C (dose: 3.13 mg/kg/injection, schedule: Q01DX007 (ip), vehicle: saline): 65 % of control
T/C (dose: 6.25 mg/kg/injection, schedule: Q01DX007 (ip), vehicle: saline): 69 % of control
T/C (dose: 12.5 mg/kg/injection, schedule: Q01DX007 (ip), vehicle: saline): 58 % of control
T/C (dose: 25.0 mg/kg/injection, schedule: Q01DX007 (ip), vehicle: saline): 56 % of control and 66 % of control
T/C (dose: 50.0 mg/kg/injection, schedule: Q01DX007 (ip), vehicle: saline): 108 % of control
T/C (dose: 100.0 mg/kg/injection, schedule: Q01DX007 (ip), vehicle: saline): 104 % of control

CN(C)c1ccc(C(C#N)C(C#N)c2ccccc2)cc1 (configuration not stated)
T/C (dose: 8.85 mg/kg/injection, schedule: Q#A X014 (ip), vehicle: methylcellulose (MC)): 69 % of control and 84 % of control
T/C (dose: 26.6 mg/kg/injection, schedule: Q#A X014 (ip), vehicle: methylcellulose (MC)): 4 % of control
T/C (dose: 40.0 mg/kg/injection, schedule: Q#A X014 (ip), vehicle: methylcellulose (MC)): 56 % of control

CN1CCC=C(C(=O)O)C1
T/C (dose: 10.0 mg/kg/injection, schedule: Q01DX007 (ip), vehicle: water): 78 % of control
T/C (dose: 50.0 mg/kg/injection, schedule: Q01DX007 (ip), vehicle: water): 75 % of control
T/C (dose: 100.0 mg/kg/injection, schedule: Q01DX007 (ip), vehicle: water): 83 % of control

C[N+]1(CCC[N+]2(C)CC3C4C=CC(CC4)C3C2)CCOCC1 (configuration not stated)
T/C (dose: 7.75 mg/kg/injection, schedule: Q01DX007 (ip), vehicle: saline): 62 % of control
T/C (dose: 15.5 mg/kg/injection, schedule: Q01DX007 (ip), vehicle: saline): 52 % of control
T/C (dose: 31.0 mg/kg/injection, schedule: Q01DX007 (ip), vehicle: saline): 86 % of control
T/C (dose: 62.0 mg/kg/injection, schedule: Q01DX007 (ip), vehicle: saline): 45 % of control

O=C(O)C(=O)c1ccc(-c2ccccc2)cc1
T/C (dose: 4.0 mg/kg/injection, schedule: Q01DX007 (ip), vehicle: carboxymethylcellulose (CMC)): 83 % of control
T/C (dose: 8.0 mg/kg/injection, schedule: Q01DX007 (ip), vehicle: carboxymethylcellulose (CMC)): 106 % of control
T/C (dose: 16.0 mg/kg/injection, schedule: Q01DX007 (ip), vehicle: carboxymethylcellulose (CMC)): 71 % of control
T/C (dose: 32.0 mg/kg/injection, schedule: Q01DX007 (ip), vehicle: carboxymethylcellulose (CMC)): 80 % of control

CCc1nc(N)nc(N)c1-c1ccc(Cl)cc1
T/C (dose: 6.25 mg/kg/injection, schedule: Q01DX007 (ip), vehicle: carboxymethylcellulose (CMC)): 114 % of control
T/C (dose: 12.5 mg/kg/injection, schedule: Q01DX007 (ip), vehicle: carboxymethylcellulose (CMC)): 88 % of control
T/C (dose: 25.0 mg/kg/injection, schedule: Q01DX007 (ip), vehicle: carboxymethylcellulose (CMC)): 114 % of control
T/C (dose: 50.0 mg/kg/injection, schedule: Q01DX007 (ip), vehicle: carboxymethylcellulose (CMC)): 77 % of control

C[C@]12C=CC(=O)C=C1CC[C@@H]1[C@@H]2[C@@H](O)C[C@@]2(C)[C@H]1CC[C@]2(O)C(=O)CF
T/C (dose: 6.0 mg/kg/injection, schedule: Q01DX007 (sc), vehicle: steriod suspending solution): 77 % of control
T/C (dose: 9.0 mg/kg/injection, schedule: Q01DX007 (sc), vehicle: steriod suspending solution): 91 % of control
T/C (dose: 13.3 mg/kg/injection, schedule: Q01DX007 (sc), vehicle: steriod suspending solution): 82 % of control
T/C (dose: 20.0 mg/kg/injection, schedule: Q01DX007 (sc), vehicle: steriod suspending solution): 35 % of control and 49 % of control and 54 % of control
T/C (dose: 45.0 mg/kg/injection, schedule: Q01DX007 (sc), vehicle: steriod suspending solution): 32 % of control
T/C (dose: 70.0 mg/kg/injection, schedule: Q01DX007 (sc), vehicle: steriod suspending solution): 27 % of control and 32 % of control and 36 % of control
T/C (dose: 107.0 mg/kg/injection, schedule: Q01DX007 (sc), vehicle: steriod suspending solution): 32 % of control
T/C (dose: 158.0 mg/kg/injection, schedule: Q01DX007 (sc), vehicle: steriod suspending solution): 36 % of control
T/C (dose: 160.0 mg/kg/injection, schedule: Q01DX007 (sc), vehicle: steriod suspending solution): 24 % of control
T/C (dose: 352.0 mg/kg/injection, schedule: Q01DX007 (sc), vehicle: steriod suspending solution): 52 % of control
T/C (dose: 358.0 mg/kg/injection, schedule: Q01DX007 (sc), vehicle: steriod suspending solution): 33 % of control
T/C (dose: 360.0 mg/kg/injection, schedule: Q01DX007 (sc), vehicle: steriod suspending solution): 33 % of control
T/C (dose: 537.0 mg/kg/injection, schedule: Q01DX007 (sc), vehicle: steriod suspending solution): 39 % of control and 56 % of control
T/C (dose: 540.0 mg/kg/injection, schedule: Q01DX007 (sc), vehicle: steriod suspending solution): 20 % of control and 22 % of control
T/C (dose: 801.0 mg/kg/injection, schedule: Q01DX007 (sc), vehicle: steriod suspending solution): 49 % of control
T/C (dose: 1202.0 mg/kg/injection, schedule: Q01DX007 (sc), vehicle: steriod suspending solution): 61 % of control

c1ccc2c(c1)-c1cccc3c1c-2cc1ccccc13
T/C (dose: 25.0 mg/kg/injection, schedule: Q01DX007 (ip), vehicle: other): 53 % of control
T/C (dose: 36.0 mg/kg/injection, schedule: Q01DX007 (ip), vehicle: other): 36 % of control and 47 % of control
T/C (dose: 55.0 mg/kg/injection, schedule: Q01DX007 (ip), vehicle: carboxymethylcellulose (CMC)): 35 % of control
T/C (dose: 55.0 mg/kg/injection, schedule: Q01DX007 (ip), vehicle: other): 57 % of control
T/C (dose: 82.5 mg/kg/injection, schedule: Q01DX007 (ip), vehicle: other): 26 % of control and 42 % of control
T/C (dose: 125.0 mg/kg/injection, schedule: Q01DX007 (ip), vehicle: other): 14 % of control

O=C(Nc1ccc([N+](=O)[O-])cc1)Nc1ccc([N+](=O)[O-])cc1 (tested in a mixture with another compound)
T/C (dose: 37.0 mg/kg/injection, schedule: Q#A X014 (ip), vehicle: methylcellulose (MC)): 59 % of control
T/C (dose: 55.5 mg/kg/injection, schedule: Q#A X014 (ip), vehicle: methylcellulose (MC)): 60 % of control
T/C (dose: 187.5 mg/kg/injection, schedule: Q#A X014 (ip), vehicle: methylcellulose (MC)): 53 % of control and 50 % of control and 52 % of control
T/C (dose: 250.0 mg/kg/injection, schedule: Q#A X014 (ip), vehicle: methylcellulose (MC)): 44 % of control

CC(=O)Nc1cc2c(cc1Br)-c1ccccc1C2O (configuration not stated)
T/C (dose: 48.0 mg/kg/injection, schedule: Q01DX007 (ip), vehicle: other): 60 % of control
T/C (dose: 73.0 mg/kg/injection, schedule: Q01DX007 (ip), vehicle: other): 93 % of control
T/C (dose: 130.0 mg/kg/injection, schedule: Q01DX007 (ip), vehicle: saline): 40 % of control and 56 % of control
T/C (dose: 195.0 mg/kg/injection, schedule: Q01DX007 (ip), vehicle: saline): 107 % of control
T/C (dose: 250.0 mg/kg/injection, schedule: Q01DX007 (ip), vehicle: other): 36 % of control
T/C (dose: 375.0 mg/kg/injection, schedule: Q01DX007 (ip), vehicle: other): 46 % of control
T/C (dose: 560.0 mg/kg/injection, schedule: Q01DX007 (ip), vehicle: other): 32 % of control

O=C(CBr)c1ccc(Br)cc1
T/C (dose: 7.5 mg/kg/injection, schedule: Q01DX007 (ip), vehicle: other): 63 % of control
T/C (dose: 15.0 mg/kg/injection, schedule: Q01DX007 (ip), vehicle: other): 49 % of control and 73 % of control
T/C (dose: 20.0 mg/kg/injection, schedule: Q01DX007 (ip), vehicle: other): 42 % of control
